# From publication PMC11304990, “Identification of mitochondrial ATP synthase as the cellular target of Ru-polypyridyl-β-carboline complexes by affinity-based protein profiling” (National Science Review, 2024)
# Experiments:
# [1] = tested on: prostate cancer (PC3); assay: MTT antiproliferative assay, PC3; type: cell-based, human; conditions: 72 h
# Description: (§1) Ru3–Ru9 also show a certain selectivity for cancer cells over normal cells, and Ru2, Ru3, Ru5 and Ru9 show higher selectivity index (SI) values than the other complexes.
# (§2) PA-BPP was then used to confirm the molecular targets of Ru5 by modifying it with a ‘minimalist’ biorthogonal handle-containing photo-cross-linker. Through our structure–activity relationship analysis and comparison with other ruthenium complexes utilizing phen as the auxiliary ligands with similar coordination structures (using cisplatin as a control), we propose that the β-carboline ligands play an important role in antiproliferative activity. To maintain the binding characteristics of the β-carboline moiety with the targeted biomolecules, we linked the photo-cross-linker to one of the auxiliary ligands of Ru5.
# [2] = tested on: human lung fibroblast-like (HLF) cells; assay: MTT antiproliferative assay, HLF; type: cell-based; conditions: 72 h
# Description: as §1, §2
# [3] = target: ATPase (mitochondrial ATP synthase); assay: Inhibition of the enzymatic activity of ATPase in vitro; type: biochemical; conditions: read-out: Inhibition constant (Ki)
# Experimental: Figure 1. Validation of ATP5F1 as the molecular target of Ru5. (A) Proteins pulled down by streptavidin from A549 cells treated with Ru5a followed by PAL. The cells were treated with Ru5a (50 μM) for 12 h and irradiated with UV light for 20 min. (B) The top five peptides enriched by Ru5a-mediated PAL were identified with the assistance of SILAC-based chemoproteomic studies. H1F0: H1 histone family member 0; HIST4H4: histone cluster 4 H4; HIST3H2BB: histone cluster 3 H2B family member b; ATP5F1E: ATP synthase F1 subunit epsilon; HIST1H2AJ: histone cluster 1 H2A family member J. (C) Pull-down western blotting analysis of ATPase in A549 cells treated with Ru5a. (D) Cellular Ru content in cells treated with Ru5/Ru5a (20 μM, 12 h) measured by ICP-MS. (E) Impact of Ru5/Ru5a (10 μM) on the thermal stability of ATP5F1 measured by CETSA. (F) Impact on the anticancer activities of Ru5/Ru5a against wild type and ATPase knocking down (by siRNA) A549 cells. The relative cellular viability was calculated using the cells without drug treatment in each group as the control group. (G) Inhibition of Ru5/Ru5a on the enzymatic activity of ATPase. (-)-blebbistatin was used as the positive control. (H) Molecular docking of Ru5 with ATPase (PDB: 3ZIA). The red dashes indicate the hydrogen bonds formed between Ru5 and the amino acid residues (SER38 and GLN39). The yellow dashes indicate the hydrophobic interaction between Ru5 and the amino acid residues (ASN15 and GLN19). Data are presented as means ± SD from three independent experiments. TEXT PRINTED IN THE PICTURE: (B) Ru5a: Log2 (fold change) (Ru5a/DMSO): 1.43 (Protein name: H1F0); Log2 (fold change) (Ru5a/DMSO): 1.23 (Protein name: HIST4H4); Log2 (fold change) (Ru5a/DMSO): 1.22 (Protein name: HIST3H2BB); Log2 (fold change) (Ru5a/DMSO): 1.21 (Protein name: ATP5F1E); Log2 (fold change) (Ru5a/DMSO): 1.12 (Protein name: HIST1H2AJ) DOUBTS OF THE COPYIST ABOUT THIS PICTURE: Panel B: the table rows are proteins enriched by Ru5a, not separate substances. […]
# [4] = tested on: Ru5-treated cells; assay: Effect of cell death inhibitors on antiproliferative activity; type: cell-based; conditions: 24 h
# Experimental: Figure 4. Ru5 induces mitophagy and ferroptosis and inhibits EMT in vitro. (A) TEM images of A549 cells treated with vehicle (1% DMSO) or Ru5 (10 μM, 12 h). Red rectangles represent the region enlarged. Scale bar: 5 μm and 500 nm (enlarged). (B) The morphological examination of mitochondria in A549 cells treated with Ru5 (10 μM) for the indicated time intervals. MTG: λex = 514 nm; λem = 540 ± 20 nm. LTDR: λex = 633 nm; λem = 700 ± 20 nm. Scale bar: 20 μm. (C) Western blotting analysis showing the impact of Ru5 (24 h) on the expression of proteins related to mitochondrial dysfunction and ferroptosis. (D and E) The impact of different inhibitors on antiproliferative activity of Ru5 (24 h). (F) RT-qPCR analysis of EMT-related genes in A549 cells after Ru5 (10 μM, 12 h) treatment. (G) The impact of Ru5 (5 μM) on the migration of A549 cells was measured by a wound healing assay. Scale bar: 100 μm. (H) Quantitative analysis of the impact of Ru5 on wound healing. (I) Selective images of the impact of Ru5 (5 μM, 48 h) on the migration of A549 cells detected by transwell assay. Scale bar: 100 μm. Data are presented as means ± SD from three independent experiments. *P ≤ 0.05, **P ≤ 0.01, ***P ≤ 0.001, by Student's t-test.
# We then used different specific inhibitors to further confirm the modes of cell death induced by Ru5. These inhibitors act on autophagy (3-methyladenine, 3-MA, Fig. 4D), ferroptosis (liproxstatin-1, Lip-1, Fig. 4E), necroptosis (necrostatin-1, Nec-1, Fig. S47A) and apoptosis (Z-VAD-FMK, Fig. S47B). The effect of 3-MA on the antiproliferative activity of Ru5 is concentration-dependent, with lower and higher concentrations enhancing and inhibiting the antiproliferative activity of Ru5, respectively. Thus, Ru5 induces cytoprotective autophagy at lower concentrations, while autophagic cell death is induced at higher concentrations. As expected, Lip-1 can relieve the antiproliferative activity of Ru5. However, Nec-1 and Z-VAD-FMK show no effect on the cell viability of Ru5-treated cells.
# [5] = tested on: malignant glioma (U87); assay: MTT antiproliferative assay, U87; type: cell-based, human; conditions: 72 h
# Description: as §1, §2
smiles,measurement,setting,value
F[P-](F)(F)(F)(F)F.F[P-](F)(F)(F)(F)F.[Ru+2].c1ccc2c(c1)[nH]c1c(-c3ncc[nH]3)nccc12.c1cnc2c(c1)ccc1cccnc12.c1cnc2c(c1)ccc1cccnc12 [Ru5],IC50,[1],2.7 ± 0.4 µM
same,IC50,[2],33.9 ± 0.2 µM
same,Ki,[3],6.2 ± 1.4 µM
same,Effect of 3-MA (autophagy inhibitor) on antiproliferative activity,[4],concentration-dependent
same,Effect of Lip-1 (ferroptosis inhibitor) on antiproliferative activity,[4],relieve
same,Effect of Nec-1 (necroptosis inhibitor) on cell viability,[4],no effect
same,Effect of Z-VAD-FMK (apoptosis inhibitor) on cell viability,[4],no effect
same,IC50,[5],14.7 ± 0.7 µM
